We go through two molecules from PMC7619385 (ACS infectious diseases, 2025).

In one data set the target is T1, LmxCLK1 (Leishmania mexicana, UniProt E9AMP2).
T1 sequence (E9AMP2 1-422): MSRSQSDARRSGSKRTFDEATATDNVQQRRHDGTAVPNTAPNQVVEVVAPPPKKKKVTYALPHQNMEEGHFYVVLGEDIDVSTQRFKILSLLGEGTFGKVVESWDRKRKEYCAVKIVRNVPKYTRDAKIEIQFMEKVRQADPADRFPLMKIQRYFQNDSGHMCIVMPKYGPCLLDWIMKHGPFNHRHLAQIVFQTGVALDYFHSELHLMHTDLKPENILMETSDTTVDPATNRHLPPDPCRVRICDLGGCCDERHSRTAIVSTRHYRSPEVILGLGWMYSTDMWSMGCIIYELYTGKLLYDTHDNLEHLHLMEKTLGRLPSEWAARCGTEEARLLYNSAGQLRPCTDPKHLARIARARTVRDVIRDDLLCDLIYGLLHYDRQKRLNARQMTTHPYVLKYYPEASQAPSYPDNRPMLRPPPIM
The experiment in a line: Intact mass LC-MS for covalent adduct formation. Format: binding. The conditions noted are these: 2 h incubation at room temperature, inhibitor:protein 3:1. As for the experimental part: Samples were analyzed by LC-ESI-MS in a XEVO G2 Sx Q-ToF (Waters) at LACTAD-UNICAMP, Brazil. […]
where background is the background fluorescence obtained in the absence of enzyme (blank).
To determine IC50 values, the background-corrected HTRF ratio was plotted as a function of test compound concentration, and the data were fitted to the sigmoidal dose-response (variable slope) equation [2] available in GraphPad Prism (v. 9.1.0):
Signal ratio (665/620) = Plateau + Plateau)(* − Plateau’())($ [2] […]
where Hill = Hill slope describing the steepness of the curve and x = test compound concentration.
To obtain normalized enzymatic activity we used the background corrected HTRF ratio of enzymatic […]
and 0% enzyme activity, respectively.
To establish the contribution of compound pre-incubation to the IC50 assay, we pre-incubated WZ8040 with LmxCLK1 for 5, 10, 15 and 30 minutes at room temperature, prior to starting the phosphorylation reaction by adding ATP and the peptide substrate. The enzymatic reactions were carried following the procedures described above.
For fitting of kinact and KI values from endpoint pre-incubation IC50 data, we used the equation [3], first described by Krippendorff and colleagues:7 […]
IC"&(t) = k. […]
(CQMED clone ID LmxCLK1-cb001) and the two covalent inhibitors WZ8040 and WZ3146. […] Samples were analyzed by LC-ESI-MS in a XEVO G2 Sx Q-ToF (Waters) at LACTAD-UNICAMP, Brazil. […]

Data set [1] relates to L. mexicana intracellular amastigotes. The experiment in a line: Intracellular amastigote viability in THP-1 macrophages (DAPI counting). The data set is classed as cell-based. The note with it: Leishmania mexicana, macrophage-internalized amastigotes, 48 h.
Experimental: L. mexicana (strain MNYC/BZ/62/M379) promastigotes were cultivated in medium 199 (M199) (Earle’s Salts - Gibco) supplemented with 10% (v/v) heat-inactivated fetal calf serum (HIFCS – Cultilab) and 1% Penicillin/Streptomycin solution (Sigma-Aldrich) at 26 °C. […] THP-1 monocytes were differentiated in adherent macrophages with 50 ng of PMA for 72 h at 37 °C and 5% CO2 before infection with stationary phase promastigotes (ratio 10 promastigotes:1 macrophage) for 6 h, followed by washing to remove non-internalized Leishmania. Infected macrophages were incubated at 34 °C and 5% CO2 for 48 h in RPMI (Gibco) supplemented with 10% HIFCS and 1% Penicillin/Streptomycin solution.
For evaluation of drug effect on promastigote and uninfected macrophage viability, cells were cultivated in the presence of test compounds for 24 h and incubated with 10% AlamarBlue™ Cell Viability Reagent (ThermoFisher) for 24 h before measuring fluorescence at λex 540 nm/λem 590 nm. Untreated cells (1% DMSO) were set as 100 % viable cells. Intracellular amastigotes were treated with compounds for 48 h. Slides with paraformaldehyde-fixed and DAPI-stained cells were imaged on a Zeiss AxioImager microscope – at least 200 macrophages per drug concentration and DMSO control. Experiments were performed in duplicate. The total number of amastigotes was normalized by the number of macrophages counted.
Data set [2] concerns LmxCLK1-overexpressing L. mexicana. The experiment in a line: microbe, parasite or virus in culture. The data set is classed as cell-based, Leishmania mexicana.
Data set [3] concerns L. mexicana T7/Cas9 Δclk1, Δclk2 and Cys172Ala LmxCLK1 lines. The experiment in a line: Viability of T7/Cas9 null mutant and cysteine point-mutant lines. The data set is classed as cell-based, Leishmania mexicana. The note with it: 96 h, versus parental T7/Cas9 line.
Text: Data represent mean ± SD of four independent experiments performed in triplicate. […] Data represent mean ± SD of two independent experiments performed in duplicate. […] Data represent mean ± SD of two independent experiments performed in triplicate. […] Values are mean ± SEM.
L. mexicana (strain MNYC/BZ/62/M379) promastigotes were cultivated in medium 199 (M199) (Earle’s Salts - Gibco) supplemented with 10% (v/v) heat-inactivated fetal calf serum (HIFCS – Cultilab) and 1% Penicillin/Streptomycin solution (Sigma-Aldrich) at 26 °C. Phenotypic drug response assays in null mutant and point-mutation mutant lines were performed in HOMEM supplemented with 10% (v/v) heat-inactivated fetal calf serum (HIFCS – Gibco).
The test system of data set [4] is THP-1-derived macrophages. The note with it: human, 24 h, 100 µM.
Experimental: For evaluation of drug effect on promastigote and uninfected macrophage viability, cells were cultivated in the presence of test compounds for 24 h and incubated with 10% AlamarBlue™ Cell Viability Reagent (ThermoFisher) for 24 h before measuring fluorescence at λex 540 nm/λem 590 nm. Untreated cells (1% DMSO) were set as 100 % viable cells. […] Experiments were performed in duplicate.
For data set [5], the system named is T790M mutant form of EGFR. The note with it: cited from earlier work.

For the molecule `C=CC(=O)Nc1cccc(Oc2nc(Nc3ccc(N4CCN(C)CC4)cc3)ncc2Cl)c1` [WZ3146], the “Covalent adduct formation with purified LmxCLK1” value on LmxCLK1 is given as “formation of covalent adducts”.
A word on the EC50: it is the concentration that produces a half-maximal response. For the molecule `C=CC(=O)Nc1cccc(Sc2nc(Nc3ccc(N4CCN(C)CC4)cc3)ncc2Cl)c1` [WZ8040], the EC50 in data set [1] came to 2.1 µM; in data set [2] (Leishmania mexicana, read-out: EC50 LmxCLK1-overexpressing parasites), 17.6 µM. Besides, in data set [2] (compared to wild-type parasites), the “Reduction of parasite sensitivity by LmxCLK1 overexpression” value is recorded as “approximately 3 fold”. Further, the “Sensitivity of Δclk1 line” value in data set [3] is given as “significantly enhanced sensitivity”. In addition, the “Covalent adduct formation with purified LmxCLK1” value on LmxCLK1 is recorded as “formation of covalent adducts”. In data set [4], the “Reduction in macrophage viability” value is reported as ~ 15%. Further, the “Selectivity for T790M mutant EGFR compared to wild-type enzyme” value in data set [5] is given as “over 10 fold”.
